According to ChEMBL document CHEMBL1143426, “In vivo efficacy of ceftaroline (PPI-0903), a new broad-spectrum cephalosporin, compared with linezolid and vancomycin against methicillin-resistant and vancomycin-intermediate Staphylococcus aureus in a rabbit endocarditis model” (Antimicrob Agents Chemother, 2007):
Converted amounts (≈) assume the structure as drawn. The source made the active and inactive calls. The rule behind the calls is not given here.

Legend:
[1] = tested on: Moraxella catarrhalis; test: Antibacterial activity against Moraxella catarrhalis; assay type: functional, organism-based
[2] = tested on: Klebsiella pneumoniae; test: Antibacterial activity against Klebsiella pneumoniae; assay type: functional, organism-based
[3] = tested on: Staphylococcus aureus; test: Bactericidal activity against methicillin-resistant Staphylococcus aureus SA2 by microdilution technique; assay type: functional
[4] = tested on: Staphylococcus aureus; test: Bactericidal activity against methicillin-resistant Staphylococcus aureus SA2 in rabbit endocarditis model at 4 times MIC after 48 hrs; assay type: functional, organism-based
[5] = tested on: Haemophilus influenzae; test: Antibacterial activity against Haemophilus influenzae; assay type: functional, organism-based
[6] = tested on: Neisseria meningitidis; test: Antibacterial activity against Neisseria meningitidis; assay type: functional, organism-based
[7] = Protein binding in rabbit plasma; assay type: ADME, cell-free, Oryctolagus cuniculus; settings: read-out: PPB
[8] = tested on: Staphylococcus aureus; test: Bactericidal activity against vancomycin-intermediate Staphylococcus aureus in rabbit endocarditis model at 4 times MIC after 48 hrs; assay type: functional, organism-based
[9] = tested on: Staphylococcus aureus; test: Bactericidal activity against vancomycin-intermediate Staphylococcus aureus in rabbit endocarditis model assessed as growth inhibition at 58 mg/kg infused every 12 hrs for 4 days measured after 48 hrs; assay type: functional; settings: read-out: GI
[10] = tested on: Staphylococcus aureus; test: Bactericidal activity against methicillin-resistant Staphylococcus aureus SA2 in rabbit endocarditis model assessed per gram of aortic vegetation at 58 mg/kg infused every 12 hrs for 4 days measured after 48 hrs; assay type: functional, Aorta
[11] = Protein binding in human plasma; assay type: ADME, cell-free; settings: read-out: PPB
[12] = tested on: Staphylococcus aureus; test: Bactericidal activity against vancomycin-intermediate Staphylococcus aureus by microdilution technique; assay type: functional
[13] = tested on: Citrobacter freundii; test: Antibacterial activity against Citrobacter freundii; assay type: functional, organism-based
[14] = tested on: Staphylococcus aureus; test: %T>MIC in methicillin-resistant Staphylococcus aureus SA2 in rabbit endocarditis model; settings: in vivo
[15] = tested on: Pseudomonas aeruginosa; test: Antibacterial activity against Pseudomonas aeruginosa; assay type: functional
[16] = tested on: Escherichia coli; test: Antibacterial activity against Escherichia coli; assay type: functional, organism-based
[17] = tested on: Staphylococcus aureus; test: Bactericidal activity against methicillin-resistant Staphylococcus aureus SA2 in rabbit endocarditis model assessed as growth inhibition at 58 mg/kg infused every 12 hrs for 4 days measured after 48 hrs; assay type: functional; settings: read-out: GI
[18] = tested on: Staphylococcus aureus; test: %T>MIC in methicillin-resistant Staphylococcus aureus in mouse thigh/lung infection model; assay type: ADME, organism-based; settings: in vivo
[19] = tested on: Morganella morganii; test: Antibacterial activity against Morganella morganii; assay type: functional, organism-based
[20] = tested on: Staphylococcus aureus; test: %T>MIC in vancomycin-intermediate Staphylococcus aureus in rabbit endocarditis model; settings: in vivo
[21] = tested on: Staphylococcus aureus; test: Bactericidal activity against vancomycin-intermediate Staphylococcus aureus in rabbit endocarditis model assessed per gram of aortic vegetation at 58 mg/kg infused every 12 hrs for 4 days measured after 48 hrs; assay type: functional, Aorta
[22] = AUC in rabbit plasma at 58 mg/kg infused every 12 hrs for 4 days; assay type: ADME, organism-based, Oryctolagus cuniculus; parameters: dose 58 mg/kg; settings: iv
[23] = Cmax in rabbit plasma at 58 mg/kg infused every 12 hrs for 4 days; assay type: ADME, organism-based, Oryctolagus cuniculus; parameters: dose 58 mg/kg; settings: iv
[24] = Half life in rabbit plasma at 58 mg/kg infused every 12 hrs for 4 days; assay type: ADME, organism-based, Oryctolagus cuniculus; parameters: dose 58 mg/kg; settings: iv
[25] = tested on: Oryctolagus cuniculus; test: Plasma concentration in rabbit at 58 mg/kg infused every 12 hrs for 4 days; assay type: ADME, organism-based; parameters: dose 58 mg/kg; settings: in vivo, iv

Structure (SMILES): CCO/N=C(\C(=O)N[C@@H]1C(=O)N2C(C(=O)[O-])=C(Sc3nc(-c4cc[n+](C)cc4)cs3)CS[C@H]12)c1nsc(NP(=O)(O)O)n1 [CEFTAROLINE FOSAMIL]
- Activity [1]: Active
- Activity [2]: Active
- MBC [3]: 1 µg/mL (≈ 1.46 µM)
- MIC [3]: 1 µg/mL (≈ 1.46 µM)
- Activity [4]: Active
- Activity [5]: Active
- Activity [6]: Active
- fraction unbound [7]: > 0.8
- Activity [8]: Active
- inhibition in vivo at 58 mg/kg [9]: 60%
- log10cfu [10]: 2.5
- fraction unbound [11]: > 0.8
- MBC [12]: 2 µg/mL (≈ 2.92 µM)
- MIC [12]: 2 µg/mL (≈ 2.92 µM)
- Activity [13]: Active
- T>MIC [14]: 75%
- MIC90 [15]: > 32 µg/mL
- Activity [16]: Active
- inhibition in vivo at 58 mg/kg [17]: 90%
- T>MIC [18]: 33%
- Activity [19]: Active
- T>MIC [20]: 62%
- log10cfu [21]: 3

Structure (SMILES): CC(=O)NC[C@H]1CN(c2ccc(N3CCOCC3)c(F)c2)C(=O)O1 [LINEZOLID]
- AUC [22]: 137 µg·h/mL
- MBC [3]: > 64 µg/mL
- inhibition in vivo at 58 mg/kg [9]: 0%
- log10cfu [10]: 7.1
- MBC [12]: 16 µg/mL (≈ 47.4 µM)
- MIC [12]: 1 µg/mL (≈ 2.96 µM)
- inhibition in vivo at 58 mg/kg [17]: 0%
- Cmax [23]: 19600 ng/mL
- half-life [24]: 3.3 h
- log10cfu [21]: 6.9

Structure (SMILES): COc1cccc(OC)c1C(=O)N[C@@H]1C(=O)N2[C@@H]1SC(C)(C)[C@@H]2C(=O)O [METHICILLIN]
- MIC [3]: 128 µg/mL (≈ 336 µM)
- MIC [12]: > 1020 µg/mL

Structure (SMILES): CN[C@H](CC(C)C)C(=O)N[C@H]1C(=O)N[C@@H](CC(N)=O)C(=O)N[C@H]2C(=O)N[C@H]3C(=O)N[C@H](C(=O)N[C@H](C(=O)O)c4cc(O)cc(O)c4-c4cc3ccc4O)[C@H](O)c3ccc(c(Cl)c3)Oc3cc2cc(c3O[C@@H]2O[C@H](CO)[C@@H](O)[C@H](O)[C@H]2O[C@H]2C[C@](C)(N)[C@H](O)[C@H](C)O2)Oc2ccc(cc2Cl)[C@H]1O [VANCOMYCIN]
- MBC [3]: 2 µg/mL (≈ 1.38 µM)
- inhibition in vivo at 58 mg/kg [9]: 0%
- log10cfu [10]: 2.7
- MBC [12]: 8 µg/mL (≈ 5.52 µM)
- Cp [25]: 23100 ng/mL
- inhibition in vivo at 58 mg/kg [17]: 67%
- log10cfu [21]: 6.7
